For 14 compounds, IC50 results are on record in patent publication US10294212B2 (CURADEV PHARMA PRIVATE LTD., priority 2013, dated 2019).

In experiment [1] the target is Human TDO (hTDO)-transfected CHO-K1 cells (Homo sapiens (Human), UniProt P48775). Description: CHO-K1 cell based TDO assay. As to conditions: hTDO cellular assay. The protocol:
Human TDO (hTDO)-transfected CHO-K1 cells were used to identify test compounds that inhibit TDO activity and reduce Kynurenine production. CHO-K1 cells (ATCC) were cultured in DMEM supplemented with sodium bicarbonate (2.1 g/L), HEPES (4.1 g/L), L-glutamine (2 mM), non-essential amino acid (84 mg/L) and fetal bovine serum (10%) and maintained at 95% humidity and 5% CO2 in a 37° C. incubator. The TDO gene (TDO2) (Accession number NM_005651.1) was purchased from Origene (USA) and stably expressed in CHO-Kl cells using the expression vector pcDNA4/Myc-HisB Hygro (Life Technologies, USA). TDO-expressing clones were identified based on the kynurenine production by the cells. Expanded clones were used for assay as described below. Unless otherwise stated, all materials were procured from Sigma.
hTDO transfected CHO-K1 cells (0.05 million/well) were seeded in a 96-well plate and maintained overnight in DMEM containing 10% FBS (200 μL) at 95% humidity and 5% CO2 in a 37° C. incubator. The following day, cells were washed and incubated with test compounds (typically 31 μM to 10 nM, final volume 150 μL) in Hanks Balanced Salt Solution (HBSS) containing 80 μM L-tryptophan for 2 hours. Supernatant (150 μL) from the cells was treated with 30% TCA ([…]) to precipitate proteins. Supernatants were further incubated at 65° C. for 15 min to convert N-formylkynurenine to kynurenine. KYN in the supernatant was measured by LC/MS/MS using an API4000 mass spectrometer (Applied Biosystems) coupled to a Shimadzu Prominence LC system fitted with a C18 column.
Percent inhibition of the test compounds was determined by measuring the decrease in KYN as compared to the reaction control (DMSO vehicle). IC50 values were calculated using Graph Pad Prism® 5 as described above.

Experiment [2] concerns the target Human indoleamine 2,3-dioxygenase1 (hIDO1) (Homo sapiens (Human), UniProt P14902). Description: In-vitro IDO1 enzyme assay (conversion of L-tryptophan to KYN). As to conditions: read-out: IC50 (IDO1) Enz. The format is biochemical. An excerpt:
Human indoleamine 2,3-dioxygenasel (hIDO1) catalyzes the oxidative cleavage of the pyrrole ring of the indole nucleus of tryptophan to yield N-formylkynurenine which can be converted to kynurenine (KYN) by deformylation. hIDO1 with an N-terminal His tag, expressed and purified from E. coli cells was procured from either Enzo LifeScienccs, NY, USA). Unless otherwise stated, all materials were procured from Sigma Aldrich, Mo., USA.
The assay monitoring the conversion of L-tryptophan to KYN was carried out as follows. hIDO1 (10 nM) was incubated with tryptophan (30 μM) in the presence of ascorbic acid (20 mM), methylene blue (10 μM) and catalase (100 μg/mL) in potassium phosphate buffer (50 mM; pH 6.5) at 37C for 30 min. The reaction was terminated with 30% trichloroacetic acid (TCA) and further incubated at 65C for 15 min to fully convert N-formylkynurenine to KYN. The reaction mixture was then centrifuged to remove sediments and the KYN in the supernatant was estimated by UV-visible absorption spectroscopy at 360 nm using a Waters HPLC system fitted with a C-18 column or by LC/MS/MS. See, Sono, 1980, J. Biol. Chem., 255:1339-1345, which is herein incorporated by reference.
Percent inhibition at each concentration of test compounds was determined by estimating the decrease in KYN with reference to the reaction control with 1% DMSO vehicle. Data were analyzed using nonlinear regression to generate IC50 values using Graph Pad Prism® 5.

Counter-ions that a name gives are not always drawn.

Chain of Human indoleamine 2,3-dioxygenase1 (hIDO1) (P14902 whole entry): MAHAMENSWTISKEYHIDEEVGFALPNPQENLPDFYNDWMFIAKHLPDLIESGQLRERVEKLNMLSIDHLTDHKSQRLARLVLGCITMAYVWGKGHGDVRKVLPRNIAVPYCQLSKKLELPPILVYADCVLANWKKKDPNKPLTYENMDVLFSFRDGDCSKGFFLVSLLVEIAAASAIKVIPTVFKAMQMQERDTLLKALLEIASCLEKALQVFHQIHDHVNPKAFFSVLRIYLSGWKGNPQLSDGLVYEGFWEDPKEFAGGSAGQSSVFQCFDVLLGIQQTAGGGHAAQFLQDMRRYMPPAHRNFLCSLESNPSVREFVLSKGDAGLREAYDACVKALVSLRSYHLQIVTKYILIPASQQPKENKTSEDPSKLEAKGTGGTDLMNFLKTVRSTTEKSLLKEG
Chain of Human TDO (hTDO)-transfected CHO-K1 cells (P48775 whole entry): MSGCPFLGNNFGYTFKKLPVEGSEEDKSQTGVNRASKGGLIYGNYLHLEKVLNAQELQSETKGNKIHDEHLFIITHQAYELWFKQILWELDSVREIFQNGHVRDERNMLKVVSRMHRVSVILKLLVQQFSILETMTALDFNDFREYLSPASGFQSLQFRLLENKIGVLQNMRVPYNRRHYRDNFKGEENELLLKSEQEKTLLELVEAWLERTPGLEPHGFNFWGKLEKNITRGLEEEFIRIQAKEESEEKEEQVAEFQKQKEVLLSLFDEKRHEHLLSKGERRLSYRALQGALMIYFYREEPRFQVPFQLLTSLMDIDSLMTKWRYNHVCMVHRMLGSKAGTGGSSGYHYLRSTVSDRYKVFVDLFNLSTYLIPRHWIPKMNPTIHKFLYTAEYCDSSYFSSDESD

For `C#Cc1ccc(Nc2c(N)oc3cnccc23)cc1` [Compound 36, N^3-(4-Ethynylphenyl)furo[2,3-c]pyridine-2,3-diamine], the IC50 in experiment [1] is 0.5 to 2 µM; in experiment [2] it was > 1 µM.

Take `CCOC(=O)Nc1oc2c(-c3ccccc3)nccc2c1Nc1ccc(F)c(Cl)c1` [Compound 162, Ethyl (3-((3-chloro-4-fluorophenyl)amino)-7-phenylfuro[2,3-c]pyridin-2-yl)carbamate]: the values for the IC50 in experiment [1] and in experiment [2] were > 2 µM and > 1 µM, respectively.

Turning to `CCOC(=O)Nc1oc2c(-c3ccncc3)nccc2c1N(C(=O)OCC)c1ccc(F)c(C(F)(F)F)c1` [Compound 193, Ethyl (2-((ethoxycarbonyl)amino)-7-(pyridin-4-yl)furo[2,3-c]pyridin-3-yl)(4-fluoro-3-(trifluoromethyl)phenyl)carbamate], the values for the IC50 in experiment [1] and in experiment [2] were > 2 µM and > 1 µM, respectively.

On to `N#Cc1nccc2c(Nc3ccc(F)c(Cl)c3)c(NC(=O)OCc3ccccc3)oc12` [Compound 155, Benzyl (3-((3-chloro-4-fluorophenyl)amino)-7-cyanofuro[2,3-c]pyridin-2-yl)carbamate], for which the IC50 in experiment [1] is 0.5 to 2 µM; in experiment [2], > 1 µM.

With `COC(=O)Nc1oc2cnccc2c1Nc1ccc(F)c(Cl)c1` [Compound 143, Methyl (3-((3-chloro-4-fluorophenyl)amino)furo[2,3-c]pyridin-2-yl)carbamate], the values for the IC50 in experiment [1] and in experiment [2] were > 2 µM and > 1 µM, respectively.

Consider `CCOC(=O)Nc1oc2c(-c3ccc(C(N)=O)cc3)nccc2c1Nc1ccc(F)c(Cl)c1` [Compound 157, Ethyl (7-(4-carbamoylphenyl)-3-((3-chloro-4-fluorophenyl)amino)furo[2,3-c]pyridin-2-yl)carbamate], for which the IC50 in experiment [1] was > 2 µM; in experiment [2] it was > 1 µM.

As to `N#Cc1ccc(Nc2c(N)oc3cnccc23)cc1` [Compound 39, 4-((2-Aminofuro[2,3-c]pyridin-3-yl)amino)benzonitrile], the IC50 in experiment [1] is 0.5 to 2 µM; in experiment [2], > 1 µM.

As for `Nc1sc2ccccc2c1Nc1ccc(F)c(C(F)(F)F)c1` [Compound 128, N^3-(4-Fluoro-3-(trifluoromethyl)phenyl)benzo[b]thiophene-2,3-diamine], the IC50 in experiment [1] was > 2 µM; in experiment [2], < 0.2 µM.

For `CN(c1ccccc1)c1c(N)sc2ccccc12` [Compound 135, N^3-Methyl-N^3-phenylbenzo[b]thiophene-2,3-diamine hydrochloride], the IC50 in experiment [1] was > 2 µM; in experiment [2], > 1 µM.

As to `Nc1oc2cnccc2c1Nc1ccccc1N1CCCCC1` [Compound 24, N^3-(2-(Piperidin-1-yl)phenyl)furo[2,3-c]pyridine-2,3-diamine], the IC50 was > 2 µM in experiment [1] and > 1 µM in experiment [2].

In the case of `Nc1oc2cncc(Cl)c2c1Nc1ccc(F)c(Cl)c1` [Compound 57, 4-Chloro-N^3-(3-chloro-4-fluoro-phenyl)-furo[2,3-c]pyridine-2,3-diamine], the IC50 is 0.5 to 2 µM in experiment [1] and > 1 µM in experiment [2].

Consider `CCOC(=O)Nc1oc2c(C#N)nccc2c1N(C(=O)OCC)c1ccc(F)c(Cl)c1` [Compound 145, Ethyl (3-chloro-4-fluorophenyl)(7-cyano-2-((ethoxycarbonyl)amino)furo[2,3-c]pyridin-3-yl)carbamate], for which the IC50 is > 2 µM in experiment [1] and > 1 µM in experiment [2].

Consider `N#Cc1ccc2c(Nc3ccc(F)c(Cl)c3)c(N)sc2c1` [Compound 136, 2-Amino-3-((3-chloro-4-fluorophenyl)amino)benzo[b]thiophene-6-carbonitrile], for which the figures for the IC50 in experiment [1] and in experiment [2] were > 2 µM and > 1 µM, respectively.

Regarding `Cc1cc(-c2cccc3c(Nc4ccc(F)cc4)c(N)sc23)ccn1` [Compound 266, N^3-(4-Fluorophenyl)-7-(2-methylpyridin-4-yl)benzo[b]thiophene-2,3-diamine], the IC50 in experiment [1] is 0.5 to 2 µM; in experiment [2], < 0.2 µM.
